In patent US20020115122A1, “Method and apparatus for automated assessment of the immunoregulatory status of the mononuclear leukocyte immune system” (priority 1998, published 2002):

Key:
[1] = test system: peripheral blood mononuclear cells from normal donors; test: Stimulation index by tritiated thymidine uptake in PHA culture; type: cell-based, human; details: 72 hours in culture with PHA
Method: This analysis is correlated with the stimulation index as measured by a 72 hour PHA culture with tritiated thymidine uptake. Peripheral blood mononuclear cells from normal donors were isolated by density gradient centrifugation, cultured with PHA, incubated with monoclonal antibodies to select mononuclear cell subclass antigenic determinants and to IL-2 receptors and four parameter data generated and analyzed similar as described in “Detailed Description”. Monoclonal antibodies used included FITC-conjugated antibody for the antigenic determinants Leu-4, Leu-3a or Leu-2a, and PE-conjugated monoclonal antibody for IL-2 receptor. Four parameter data was collected on cells using an EPICS-V flow cytofluorometer (Coulter Corporation, Hialeah, Fla.) configured as described in “Detailed Description” with the following modification: the argon laser was used at 500 milliwatts. Forward and orthogonal light scatter parameters were analyzed to determine if the cell was within an area of interest which substantially included lymphocytes, lymphoblasts and monocytes. Green and red fluorescence data analysis was performed for such cells. The percentage of antigenic determinant and/or IL-2 receptor positive mononuclear cells, i.e., Leu-4+, Leu-3a+, Leu-2a+, IL2R+, leu-4+IL2R+, Leu-3a+IL2R+and Leu-2a+IL2R+, was determined as per the methods described herein. […]

[2] = test system: peripheral blood mononuclear cells from normal donors; test: Antigenic determinant and IL-2 receptor expression on PHA stimulated mononuclear cells (flow cytofluorometry); type: cell-based, human; details: for IL2R+ percentage positive / Leu 2a+ percentage positive / Leu 3a+ percentage positive / Leu 4+ percentage positive: N = 9, ± standard error; for ratio of Activated Leu-3a+: Activated Leu-2a+ cells: at 18 hours in culture with PHA
Method: The sample of isolated cells is cultured with a standard stimulus for a period of time sufficient to allow a measurable amount of activation antigen expression, as influenced by mononuclear cell subclass interaction, to develop. In this particular embodiment, the isolated cells at a concentration of 1 million cells per milliliter are cultured with PHA at a concentration of 37.5 micrograms per milliliter, serving as a standard stimulus, for 18 hours. RPMI 1640 with fetal calf serum and glutamine serve as a culture media. The culture time is determined for each particular standard stimulus using samples from normal subjects, culturing portions of each sample for different lengths of time and determining the amount of activation antigen expression for each culture time. A measurable amount of IL-2 receptor expression is observed about 18 hours after initiating the culture with PHA. The 18 hour culture period facilitates the use of this invention as a clinical assay.
After culturing, the cells are washed to remove the standard stimulus and then aliquots of cells are simultaneously incubated with two monoclonal antibodies, each directly conjugated to different fluorometrically distinguishable fluorophores. The first fluorophore-conjugated monoclonal antibody binds to a select mononuclear cell subclass antigenic determinant and the second fluorometrically distinguishable fluorophore-conjugated monoclonal antibody binds to a select cell surface activation antigen. After incubation, the cells are washed to remove excess antibody and, in this particular embodiment, fixed with 1% paraformaldehyde to halt any further cellular activity.
This analysis is correlated with the stimulation index as measured by a 72 hour PHA culture with tritiated thymidine uptake. Peripheral blood mononuclear cells from normal donors were isolated by density gradient centrifugation, cultured with PHA, incubated with monoclonal antibodies to select mononuclear cell subclass antigenic determinants and to IL-2 receptors and four parameter data generated and analyzed similar as described in “Detailed Description”. Monoclonal antibodies used included FITC-conjugated antibody for the antigenic determinants Leu-4, Leu-3a or Leu-2a, and PE-conjugated monoclonal antibody for IL-2 receptor. Four parameter data was collected on cells using an EPICS-V flow cytofluorometer (Coulter Corporation, Hialeah, Fla.) configured as described in “Detailed Description” with the following modification: the argon laser was used at 500 milliwatts. Forward and orthogonal light scatter parameters were analyzed to determine if the cell was within an area of interest which substantially included lymphocytes, lymphoblasts and monocytes. Green and red fluorescence data analysis was performed for such cells. The percentage of antigenic determinant and/or IL-2 receptor positive mononuclear cells, i.e., Leu-4+, Leu-3a+, Leu-2a+, IL2R+, leu-4+IL2R+, Leu-3a+IL2R+and Leu-2a+IL2R+, was determined as per the methods described herein. The results were not corrected for non-specific binding.
First, mononuclear cell subclass antigenic determinant and activation antigen analysis of PHA stimulated mononuclear cells was conducted using aliquots incubated with only one monoclonal antibody.
Analysis of the PEA stimulated mononuclear cells was conducted using aliquots incubated with a FITC-conjugated monoclonal antibody to detect antigenic determinants and anti-IL2R-PE.

[3] = 18 hours in culture with PHA, normal donors
[4] = 24 hours in culture with PHA, normal donors
[5] = 48 hours in culture with PHA, normal donors
[6] = Subject D, 18 hours in culture with PHA
[7] = Subject D, 24 hours in culture with PHA
[8] = Subject D, 48 hours in culture with PHA
[9] = Subject N, 18 hours in culture with PHA
[10] = Subject N, 48 hours in culture with PHA

phytohemagglutinin [PHA] was tested, and the “SI at 72” value ([1]; Subject D) was 535, the “SI at 72” value ([1]; Subject N) was 8 and the “IL2R+ percentage positive” value ([2]; 18 hours in culture with PHA) was 61 ± 1.9 percentage. The “Leu 2a+ percentage positive” value ([2]; 18 hours in culture with PHA) was 18 ± 1.0 percentage, the “Leu 3a+ percentage positive” value ([2]; 18 hours in culture with PHA) was 54 ± 1.7 percentage and the “Leu 4+ percentage positive” value ([2]; 18 hours in culture with PHA) was 79 ± 2.4 percentage. The “Activated Leu-2a+” value [2, 3] was 25 ± 6.4 Percentage, the “Activated Leu-3a+” value [2, 3] was 49 ± 8.9 Percentage and the “Activated Leu-4+” value [2, 3] was 49 ± 6.1 Percentage. For the same substance, the “IL2R+ percentage positive” value ([2]; 24 hours in culture with PHA) was 71 ± 1.9 percentage, the “Leu 2a+ percentage positive” value ([2]; 24 hours in culture with PHA) was 18 ± 0.7 percentage and the “Leu 3a+ percentage positive” value ([2]; 24 hours in culture with PHA) was 54 ± 1.3 percentage. For the same substance, the “Leu 4+ percentage positive” value ([2]; 24 hours in culture with PHA) was 77 ± 1.9 percentage, the “Activated Leu-2a+” value [2, 4] was 32 ± 4.5 Percentage and the “Activated Leu-3a+” value [2, 4] was 62 ± 8.5 Percentage. The “Activated Leu-4+” value [2, 4] was 62 ± 3.7 Percentage, the “IL2R+ percentage positive” value ([2]; 48 hours in culture with PHA) was 80 ± 1.5 percentage and the “Leu 2a+ percentage positive” value ([2]; 48 hours in culture with PHA) was 19 ± 2.0 percentage. The “Leu 3a+ percentage positive” value ([2]; 48 hours in culture with PHA) was 53 ± 2.8 percentage, the “Leu 4+ percentage positive” value ([2]; 48 hours in culture with PHA) was 81 ± 2.2 percentage and the “Activated Leu-2a+” value [2, 5] was 55 ± 8.0 Percentage. The “Activated Leu-3a+” value [2, 5] was 70 ± 9.5 Percentage, the “Activated Leu-4+” value [2, 5] was 72 ± 5.5 Percentage and the “time after initiating the culture at which a measurable amount of IL-2 receptor expression is observed” value ([2]; PHA 37.5 micrograms per milliliter, 1 million cells per milliliter) was “about 18 hours”. For the same substance, the “Activated Leu-2a+” value [2, 6] was 32 Percentage, the “Activated Leu-3a+” value [2, 6] was 74 Percentage and the “Activated Leu-4+” value [2, 6] was 68 Percentage. For the same substance, the “Activated Leu-2a+” value [2, 7] was 32 Percentage, the “Activated Leu-3a+” value [2, 7] was 79 Percentage and the “Activated Leu-4+” value [2, 7] was 75 Percentage. For the same substance, the “Activated Leu-2a+” value [2, 8] was 76 Percentage, the “Activated Leu-3a+” value [2, 8] was 92 Percentage and the “Activated Leu-4+” value [2, 8] was 84 Percentage. For the same substance, the “ratio of Activated Leu-3a+: Activated Leu-2a+ cells” value (from here on “ratio of Activated Leu-3a+”) ([2]; Subject D) was 2.31, the “Activated Leu-2a+” value [2, 9] was 30 Percentage and the “Activated Leu-3a+” value [2, 9] was 31 Percentage. For the same substance, the “Activated Leu-4+” value [2, 9] was 32 Percentage, the “Activated Leu-4+” value ([2]; Subject N, 24 hours in culture with PHA) was 59 Percentage and the “Activated Leu-2a+” value [2, 10] was 71 Percentage. For the same substance, the “Activated Leu-3a+” value [2, 10] was 44 Percentage, the “ratio of Activated Leu-3a+” value ([2]; Subject N) was 1.03 and the “ratio of Activated Leu-3a+” value ([2]; Subject N, listed as PRA) was “approximately 1.0”. The “subclass preference of activation” value ([2]; mononuclear cells which are Leu-3a+ versus Leu-2a+) was “preferentially activates helper/inducer T-cells”.
